What was measured:
[1] = tested on: T-cell; experiment: In vitro inhibition of proliferation of PMA and ionomycin stimulated murine T cells.; type: functional, cell-based; settings: Mus musculus
[2] = biological target: Peptidyl-prolyl cis-trans isomerase FKBP1A (Homo sapiens, UniProt P62942); experiment: In vitro competitive binding to FK506 binding protein 12 versus tritiated FK-506.
[3] = tested on: T-cell; experiment: In vitro inhibition of proliferation of PMA and ionomycin stimulated murine T cells; Antagonist; type: functional, cell-based, Mus musculus

Chain of Peptidyl-prolyl cis-trans isomerase FKBP1A (P62942 whole entry): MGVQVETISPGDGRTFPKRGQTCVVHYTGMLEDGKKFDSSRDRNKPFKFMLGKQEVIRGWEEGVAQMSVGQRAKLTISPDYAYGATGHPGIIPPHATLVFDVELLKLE

Structure (SMILES)	IC50 [2] [nM]	IC50 [1] [nM]	IC50 [3]
CC[C@@H]1/C=C(\C)[C@@H](O)[C@H](C)[C@H](OC)[C@H]2O[C@@](O)(C(=O)C(=O)N3CCCC[C@H]3C(=O)O[C@H](/C(C)=C/[C@@H]3CC[C@@H](Oc4ccc5c(ccn5C)c4)[C@H](OC)C3)[C@H](C)[C@@H](O)CC1=O)[C@H](C)C[C@@H]2OC	2.8	5.5	–
CC[C@@H]1/C=C(\C)[C@@H](O)[C@H](C)[C@H](OC)[C@H]2O[C@@](O)(C(=O)C(=O)N3CCCC[C@H]3C(=O)O[C@H](/C(C)=C/[C@@H]3CC[C@@H](Oc4ccc5ccccc5c4)[C@H](OC)C3)[C@H](C)[C@@H](O)CC1=O)[C@H](C)C[C@@H]2OC	–	10.2	–
CC[C@@H]1/C=C(\C)C[C@H](C)[C@H](OC)[C@H]2O[C@@](O)(C(=O)C(=O)N3CCCC[C@H]3C(=O)O[C@H](/C(C)=C/[C@@H]3CC[C@@H](Oc4ccc5ccccc5c4)[C@H](OC)C3)[C@H](C)[C@@H](O)CC1=O)[C@H](C)C[C@@H]2OC	74.8	1.8	–
CC[C@@H]1/C=C(\C)C[C@H](C)[C@H](OC)[C@H]2O[C@@](O)(C(=O)C(=O)N3CCCC[C@H]3C(=O)O[C@H](/C(C)=C/[C@@H]3CC[C@@H](Oc4ccccc4)[C@H](OC)C3)[C@H](C)[C@@H](O)CC1=O)[C@H](C)C[C@@H]2OC	10	5.4	–
CC[C@@H]1/C=C(\C)C[C@H](C)[C@H](OC)[C@H]2O[C@@](O)(C(=O)C(=O)N3CCCC[C@H]3C(=O)O[C@H](/C(C)=C/[C@@H]3CC[C@@H](Oc4ccc5c(ccn5C)c4)[C@H](OC)C3)[C@H](C)[C@@H](O)CC1=O)[C@H](C)C[C@@H]2OC	3.6	0.2	–
CC[C@@H]1/C=C(\C)C[C@H](C)[C@H](OC)[C@H]2O[C@@](O)(C(=O)C(=O)N3CCCC[C@H]3C(=O)O[C@H](/C(C)=C/[C@@H]3CC[C@@H](Oc4ccc5[nH]ccc5c4)[C@H](OC)C3)[C@H](C)[C@@H](O)CC1=O)[C@H](C)C[C@@H]2OC	5.1	0.2	–

Further lines, with some results ahead:

IC50 [2] [nM]	Structure (SMILES)	IC50 [1] [nM]	IC50 [3]
1.6	CC[C@@H]1/C=C(\C)C[C@H](C)[C@H](OC)[C@H]2O[C@@](O)(C(=O)C(=O)N3CCCC[C@H]3C(=O)O[C@H](/C(C)=C/[C@@H]3CC[C@@H](O)[C@H](OC)C3)[C@H](C)[C@@H](O)CC1=O)[C@H](C)C[C@@H]2OC	0.7	–
0.8	C=CC[C@@H]1/C=C(\C)C[C@H](C)[C@H](OC)[C@H]2O[C@@](O)(C(=O)C(=O)N3CCCC[C@H]3C(=O)O[C@H](/C(C)=C/[C@@H]3CC[C@@H](O)[C@H](OC)C3)[C@H](C)[C@@H](O)CC1=O)[C@H](C)C[C@@H]2OC	0.2	–
0.7	CC[C@@H]1/C=C(\C)[C@@H](O)[C@H](C)[C@H](OC)[C@H]2O[C@@](O)(C(=O)C(=O)N3CCCC[C@H]3C(=O)O[C@H](/C(C)=C/[C@@H]3CC[C@@H](O)[C@H](OC)C3)[C@H](C)[C@@H](O)CC1=O)[C@H](C)C[C@@H]2OC	–	Antagonist

Source: ChEMBL document CHEMBL1150455, “Preparation and in vitro activities of naphthyl and indolyl ether derivatives of the FK-506 related immunosuppressive macrolide ascomycin” (Bioorg Med Chem Lett, 1996)
